Test system: MYO5B expression in CRC cell lines
Test: MYO5B expression in CRC cell lines after 5-aza-dC (DAC) treatment, RT-qPCR
Format: cell-based
Conditions: colon cancer (CRC) cell lines, 5 μM for four days vs vehicle (DMSO), 2-4 independent experiments, FIG. 3A
Protocol: All CRC cell lines were obtained from the American Type Culture Collection (ATCC, Rockville, USA) and maintained in recommended culture conditions. For methylation analysis, cells were treated with 5 μM 5-Aza-2′-Deoxycytidine (5-aza-dC/DAC, Sigma) or vehicle (DMSO) for four days followed by RNA extraction.
PCR conditions were used as previously described (Letellier et al, 2014) and the expression levels of the gene of interest were normalized against the housekeeping gene HPRT (Erickson et al, 2009). For bulk tissue and CRC cell lines, the RNA was extracted with the Mirneasy kit from Qiagen and the cDNA was obtained with the mirscript II (Qiagen). PCR cycling conditions as well as quality control and normalization steps were done in qBase+ (Biogazelle), using 2 reference genes as previously described (Qureshi-Baig et al, 2016; Ullmann et a, 2016).
Over the last years, hypermethylation of tumor suppressor genes has been reported in different cancer types (Biswas & Rao, 2017). In a similar manner, MYO5B is methylated in both gastric tumors (Dong et al, 2013) and leukemias (Kuang et al, 2008). Thus, it was analyzed whether promoter methylation could explain the observed down-regulation of MYO5B in CRC. To this end, the expression of MYO5B in CRC cell lines was investigated first after treatment with 5-Aza-2′-Deoxycytidine (5-aza-dC/DAC), a known demethylating agent.

Nc1ncn([C@H]2C[C@H](O)[C@@H](CO)O2)c(=O)n1 [DAC, 5-Aza-2′-Deoxycytidine]
change of MYO5B basal expression levels after DAC treatment: minor changes
change of MYO5B basal expression levels after DAC treatment (listed as 5-aza-dC): does not increase
